How the values were obtained:
T cells = assay: Toxicity of TCN for T cells; format: cell-based; conditions: human healthy donor T cells, in vitro
Protocol: Previous studies have shown drugs given during CART cell production can influence their function. To determine the effect of TCN human healthy donor T cells are treated with TCN prior to CAR transduction. 10 μM of TCN is used because it is the highest non-toxic dose for T cells. After transduction and proliferation in culture in vitro assays are preformed to determine CAR T cell function. These include cytotoxicity, cytokine secretion, RNA-seq, polyfunctional strength index, and CAR T cell phenotype. We next evaluate the function of CAR T cells given TCN during production in vivo. A total of 60 NSG mice are given the human B cell tumor cell line NALM6 containing luciferase on day −7. On day 0, 10 mice per group will be given untransduced, h1928z, or h19BBz CAR T cells produced with or without TCN. Bioluminescence imaging is used to determine tumor burden and measure overall survival.

h19BBz CAR T cells [1] = assay: Cytokine secretion of h19BBz CAR T cells stimulated with target cells for 24 hrs (Ella); format: cell-based, human; conditions: healthy donor T cells; TCN added on day 2; target cell stimulation 24 hrs; supernatant run on Ella
Protocol: (§1) T cells were isolated from healthy donor PBMCs using negative selection. TCN was added on day 2 before the first spin transduction. To measure real time cell killing CAR T cells were stimulated with 3T3-hCD19 target cells using an xCelligence RTCA machine. To measure cytokine secretion CAR T cells were stimulated with target cells for 24 hrs. Supernatant was then collected and run using Ella to measure cytokines. […] T cells were isolated from healthy donor PBMCs using negative selection. TCN was added on day 2 before the first spin transduction. To measure real time cell killing CAR T cells were stimulated with 3T3-hCD19 target cells using an xCelligence RTCA machine. To measure cytokine secretion CAR T cells were stimulated with target cells for 24 hrs. Supernatant was then collected and run using Ella to measure cytokines.

CAR T cells = assay: CAR T cell memory phenotype by flow cytometry (LSRII), TCN added during CAR T cell production; format: cell-based, human; conditions: healthy donor PBMC T cells; TCN added on day 2 before first spin transduction; flow cytometry on day 7
Protocol: FIGS. 1A to 1G show TCN increases central memory CAR T cell population. T cells were isolated from healthy donor PBMCs using negative selection. TCN was added on day 2 before the first spin transduction. On day 7 cells were stained for flow cytometry and run on an LSRII.
T cells were isolated from healthy donor PBMCs using negative selection. TCN was added on day 2 before the first spin transduction. On day 7 cells were stained for flow cytometry and run on an LSRII.
For the anti-human CD19 constructs the SFG backbone was modified to include the FMC63 ScFv with a CD8a trans-membrane and hinge domain followed by either CD28 or 4-1BB, and CD3. All SFG constructs were calcium phosphate transfected into H29 cells. Retroviral supernatants of transfected H29 were harvested and used to transduce Phoenix E or RD114 cells. Retroviral supernatant of producer cells was harvested, 0.45 μm filtered, and used to transduce T cells as described. Viability was measured by trypan blue staining and enumerated on an automated cell counter (Bio-Rad). Transduction efficiency was estimated by flow cytometry as a percentage of protein L+ live cells. For downstream experiments CAR T cell doses were normalized based on CAR gene transfer but not sorted to exclude CAR-negative T cells. As a result, total T cell dose was varied.

p-Akt = p-Akt western blot in m1928z CAR T cells stimulated with 3T3-mCD19 targets; format: cell-based, mouse (C57BL6); conditions: C57BL6 splenocyte T cells, TCN added on day 2, day 5 stimulation with 3T3-mCD19 targets for 24 hrs
Protocol: T cells were isolated from C57BL6 splenocyes using negative selection. TCN was added on day 2 before the first spin transduction. On day 5 CAR T cells were stimulated with 3T3-mCD19 targets for 24 hrs. After stimulation cells were lysed and run by western blot. […] T cells were isolated from C57BL6 splenocyes using negative selection. TCN was added on day 2 before the first spin transduction. On day 5 CAR T cells were stimulated with 3T3-mCD19 targets for 24 hrs. After stimulation cells were lysed and run by western blot.

h19BBz CAR T cells [2] = assay: Real time cell killing of 3T3-hCD19 target cells by h19BBz CAR T cells (xCelligence RTCA); format: cell-based, human; conditions: healthy donor T cells, TCN added on day 2
Protocol: as §1

With CN1N=C(N)c2cn([C@@H]3O[C@H](COP(=O)(O)O)[C@@H](O)[C@H]3O)c3ncnc1c23 [TCN, Triciribine] the “highest non-toxic dose for T cells” value (T cells) was 10 µM, the “h19BBz CAR cytokine secretion” value (h19BBz CAR T cells [1]) was “reduces” and the “central memory CAR T cell population” value (CAR T cells) was “increases”. The “effector memory CAR T cell population” value (CAR T cells) was “increases”, the “p-Akt in m1928z CAR T cells” value (p-Akt) was “inhibits” and the “h19BBz CAR killing” value (h19BBz CAR T cells [2]) was “reduces”.

Reference: US20230039099A1, “AKT INHIBITORS FOR ENHANCING CHIMERIC T CELL PERSISTENCE” (H. Lee Moffitt Cancer Center and Research Institute, Inc., priority 2019, published 2023)
